≈ marks a conversion by molar mass, not a printed value. Where two headings read alike, the source gives them in different places.
What was measured:
[1] = target: CYP 2C19 (Homo sapiens, UniProt P33261); assay: Hepatic toxicity: Mephenytoin 4-hydroxylase in human hepatic microsomes
Method: (§1) After incubating at 37° C. for 20 min, 200 μl of each resulting solution was mixed with 100 μl of acetonitrile, and analyzed with LC-MS (LC column: Luna2 C8, 2×100 mm, flow velocity: 0.2 ml/min, MS system: Quattro LC (micromass)) using a 5% MeOH aqueous solution containing 0.1% formic acid as an eluent.

[2] = target: T1, CYP 2C8 (Homo sapiens, UniProt P10632); assay: Hepatic toxicity: Paclitaxel 6 α-hydroxylase in human hepatic microsomes
T1 sequence (P10632 1-490): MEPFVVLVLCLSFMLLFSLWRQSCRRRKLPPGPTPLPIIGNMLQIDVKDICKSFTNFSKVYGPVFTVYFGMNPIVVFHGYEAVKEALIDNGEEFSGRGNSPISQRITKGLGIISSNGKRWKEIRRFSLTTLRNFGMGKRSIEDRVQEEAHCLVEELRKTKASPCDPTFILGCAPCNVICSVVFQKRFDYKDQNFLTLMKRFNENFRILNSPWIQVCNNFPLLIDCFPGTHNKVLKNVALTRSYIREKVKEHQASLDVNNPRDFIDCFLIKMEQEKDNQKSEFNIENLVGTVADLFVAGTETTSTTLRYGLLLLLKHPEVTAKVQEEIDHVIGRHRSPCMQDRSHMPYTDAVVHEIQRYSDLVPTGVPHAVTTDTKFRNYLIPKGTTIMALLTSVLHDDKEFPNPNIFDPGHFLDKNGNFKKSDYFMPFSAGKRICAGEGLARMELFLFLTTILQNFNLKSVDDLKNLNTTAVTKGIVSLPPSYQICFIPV
Method: as §1

[3] = target: CYP 3A4 (Homo sapiens, UniProt P08684); assay: Hepatic toxicity: Midazolam 1′-hydroxylase in human hepatic microsomes; conditions: read-out: IC50 Midazolam 1′-hydroxylase CYP 3A4; human hepatic microsomes 0.5 mg/ml, 37° C., 20 min, LC-MS
Chain of CYP 3A4 (P08684 whole entry): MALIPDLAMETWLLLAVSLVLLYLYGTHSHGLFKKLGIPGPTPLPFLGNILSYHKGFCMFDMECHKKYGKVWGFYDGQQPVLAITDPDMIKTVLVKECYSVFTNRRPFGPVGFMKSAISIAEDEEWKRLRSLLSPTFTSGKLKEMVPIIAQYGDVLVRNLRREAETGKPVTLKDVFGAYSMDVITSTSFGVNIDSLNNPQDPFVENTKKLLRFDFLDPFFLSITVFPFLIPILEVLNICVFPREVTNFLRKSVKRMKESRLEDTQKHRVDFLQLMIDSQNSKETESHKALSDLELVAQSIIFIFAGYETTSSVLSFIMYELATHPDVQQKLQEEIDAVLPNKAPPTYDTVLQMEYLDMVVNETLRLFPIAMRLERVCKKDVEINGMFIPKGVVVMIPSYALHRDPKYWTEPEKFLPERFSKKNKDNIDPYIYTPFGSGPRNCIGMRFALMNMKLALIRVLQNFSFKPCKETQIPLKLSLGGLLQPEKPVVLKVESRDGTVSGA
Method: as §1

[4] = target: CYP 2C9 (Homo sapiens, UniProt P11712); assay: Hepatic toxicity: Diclofenac 4′-hydroxylase in human hepatic microsomes
Chain of CYP 2C9 (P11712 whole entry): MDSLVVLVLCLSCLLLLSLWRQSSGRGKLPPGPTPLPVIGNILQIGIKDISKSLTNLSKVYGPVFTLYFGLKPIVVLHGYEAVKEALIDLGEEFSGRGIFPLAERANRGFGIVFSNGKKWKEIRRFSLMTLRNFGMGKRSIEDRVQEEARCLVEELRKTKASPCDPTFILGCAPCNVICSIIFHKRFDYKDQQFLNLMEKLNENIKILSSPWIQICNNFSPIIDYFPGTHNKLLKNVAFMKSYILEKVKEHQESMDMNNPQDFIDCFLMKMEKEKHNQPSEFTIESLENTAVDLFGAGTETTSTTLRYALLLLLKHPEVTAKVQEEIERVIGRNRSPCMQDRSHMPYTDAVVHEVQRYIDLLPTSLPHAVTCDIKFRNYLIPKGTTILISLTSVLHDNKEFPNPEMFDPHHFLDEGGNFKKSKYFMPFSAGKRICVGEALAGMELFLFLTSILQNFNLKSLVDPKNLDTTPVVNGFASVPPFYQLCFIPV
Method: as §1

[5] = target: T2, CYP 1A2 (Homo sapiens, UniProt P05177); assay: Hepatic toxicity: Phenacetin O-deethylase in human hepatic microsomes
T2 sequence (P05177 1-516): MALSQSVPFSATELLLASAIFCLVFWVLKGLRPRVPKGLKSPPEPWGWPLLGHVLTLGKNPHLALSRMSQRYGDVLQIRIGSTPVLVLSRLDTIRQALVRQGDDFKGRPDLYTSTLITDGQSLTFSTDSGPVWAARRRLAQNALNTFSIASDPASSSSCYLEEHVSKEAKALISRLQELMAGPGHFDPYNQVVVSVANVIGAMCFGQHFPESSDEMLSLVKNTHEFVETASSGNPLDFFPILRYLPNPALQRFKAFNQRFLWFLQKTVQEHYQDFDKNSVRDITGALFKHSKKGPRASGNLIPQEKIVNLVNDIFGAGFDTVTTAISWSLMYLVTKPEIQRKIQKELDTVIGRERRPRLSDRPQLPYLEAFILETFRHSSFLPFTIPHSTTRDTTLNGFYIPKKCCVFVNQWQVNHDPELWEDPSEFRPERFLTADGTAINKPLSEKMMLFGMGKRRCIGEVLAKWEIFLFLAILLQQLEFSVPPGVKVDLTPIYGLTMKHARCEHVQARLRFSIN
Method: as §1

[6] = target: CYP 2D6 (Homo sapiens, UniProt P10635); assay: Hepatic toxicity: Bufuralol 1′-hydroxylase in human hepatic microsomes
Chain of CYP 2D6 (P10635 whole entry): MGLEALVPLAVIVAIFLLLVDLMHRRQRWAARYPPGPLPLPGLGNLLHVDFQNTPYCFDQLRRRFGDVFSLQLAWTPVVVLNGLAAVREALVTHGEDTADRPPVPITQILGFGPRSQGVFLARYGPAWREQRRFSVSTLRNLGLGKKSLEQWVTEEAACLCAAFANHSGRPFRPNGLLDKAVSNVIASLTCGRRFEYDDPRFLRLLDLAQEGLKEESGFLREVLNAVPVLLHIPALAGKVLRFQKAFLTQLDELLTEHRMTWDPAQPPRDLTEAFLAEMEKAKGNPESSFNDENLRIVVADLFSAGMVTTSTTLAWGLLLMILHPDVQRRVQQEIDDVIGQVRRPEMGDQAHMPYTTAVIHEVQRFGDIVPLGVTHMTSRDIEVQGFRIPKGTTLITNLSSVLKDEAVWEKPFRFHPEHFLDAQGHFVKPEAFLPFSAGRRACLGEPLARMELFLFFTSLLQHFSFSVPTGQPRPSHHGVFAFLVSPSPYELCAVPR
Method: as §1

[7] = target: T3, CYP 2A6 (Homo sapiens, UniProt P11509); assay: Hepatic toxicity: Coumarin 7-hydroxylase in human hepatic microsomes
T3 sequence (P11509 1-494): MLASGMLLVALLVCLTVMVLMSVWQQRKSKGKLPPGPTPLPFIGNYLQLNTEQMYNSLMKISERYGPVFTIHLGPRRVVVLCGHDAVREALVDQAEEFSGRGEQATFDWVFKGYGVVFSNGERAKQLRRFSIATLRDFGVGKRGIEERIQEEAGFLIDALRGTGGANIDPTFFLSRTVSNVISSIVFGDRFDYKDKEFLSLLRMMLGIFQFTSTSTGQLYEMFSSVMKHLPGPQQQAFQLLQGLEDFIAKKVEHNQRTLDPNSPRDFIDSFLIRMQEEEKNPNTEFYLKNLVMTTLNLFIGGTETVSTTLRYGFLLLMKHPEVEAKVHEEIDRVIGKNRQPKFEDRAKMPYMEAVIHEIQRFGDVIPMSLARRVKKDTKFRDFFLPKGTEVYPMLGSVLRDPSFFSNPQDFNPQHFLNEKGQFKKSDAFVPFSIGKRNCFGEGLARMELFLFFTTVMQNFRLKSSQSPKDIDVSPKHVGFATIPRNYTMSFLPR
Method: as §1

[8] = tested on: A. fumigatus ATCC 16424; assay: In vitro antifungal activity, microbroth dilution (MIC80); assay type: cell-based; conditions: lowest concentration reducing growth by 80% relative to untreated control; RPMI-1640, 35° C.
Method: (§2) Sabourad Dextrose Agar (Difco), YM Agar or Potato Dextrose Agar was used as a culture medium according to ATCC information, and RPMI-1640 broth (Sigma. Co. w/L-glutamine, wo/NaHCO3)(0.165 M MOPS, pH 7.0), as a dilution medium. […] In the case of yeasts, the turbidity (light absorbance) of the suspension was adjusted to 0.108 at 530 nm, and then the suspension was diluted 1000-fold with sterile RPMI-1640 liquid medium to 1.0103˜5.0103 CFU/ml. The turbidity of fungi was adjusted to 80˜82% and the suspension was diluted 50-fold to 0.4102˜0.5104 CFU/ml. […] 0.1 ml portions of the test solutions were added to the wells of a sterile 96 well plate. Then, 0.1 ml portions of each test strain solutions were added successively to the wells and the plate was incubated at 35° C. for […]. Minimal inhibitory concentration (MIC80) of each compound was determined as the lowest concentration of the test compounds required to reduce growth by 80% relative to a control strain not treated.

[9] = tested on: C. neoformans ATCC 36556; assay: as above; assay type: cell-based; conditions: lowest concentration reducing growth by 80% relative to untreated control; RPMI-1640, 35° C.
Method: as §2

[10] = tested on: Candida krusei ATCC 6258; assay: as above; assay type: cell-based; conditions: lowest concentration reducing growth by 80% relative to untreated control; RPMI-1640, 35° C.
Method: as §2

[11] = tested on: Candida albicans ATCC 10231; assay: as above; assay type: cell-based; conditions: lowest concentration reducing growth by 80% relative to untreated control; RPMI-1640, 35° C.
Method: as §2

[12] = tested on: Candida albicans MYA-573; assay: as above; assay type: cell-based; conditions: lowest concentration reducing growth by 80% relative to untreated control; RPMI-1640, 35° C.
Method: as §2

[13] = tested on: ICR mice; assay: Toxicity of oral administration; assay type: in vivo; conditions: oral administration in DMSO, observed over 2 weeks
Method: Specific pathogen-free ICR mice, 2 females and 2 males were used for the each testing. The compound of Example 40 of the present invention was dissolved in DMSO and the solution was orally administered in doses of 62, 125, 250, 500, 1,000 and 2,000 mg of the compound/kg of the body weight (10 ml of the sample volume/kg of the body weight).

Chain of CYP 2C19 (P33261 whole entry): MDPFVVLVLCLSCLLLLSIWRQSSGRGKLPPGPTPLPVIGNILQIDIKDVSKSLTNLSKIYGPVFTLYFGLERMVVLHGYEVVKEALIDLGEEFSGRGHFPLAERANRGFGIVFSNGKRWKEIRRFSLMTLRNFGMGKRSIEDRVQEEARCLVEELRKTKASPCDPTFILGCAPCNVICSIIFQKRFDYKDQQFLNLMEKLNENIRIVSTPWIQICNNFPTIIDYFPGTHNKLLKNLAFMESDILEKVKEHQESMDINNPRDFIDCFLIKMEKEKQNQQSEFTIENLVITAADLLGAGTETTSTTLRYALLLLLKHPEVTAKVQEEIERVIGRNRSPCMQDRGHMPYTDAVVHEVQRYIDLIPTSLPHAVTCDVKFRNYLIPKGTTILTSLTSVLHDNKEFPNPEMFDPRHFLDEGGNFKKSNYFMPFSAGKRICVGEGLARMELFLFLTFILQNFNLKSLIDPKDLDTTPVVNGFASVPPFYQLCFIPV

Row | SMILES | MIC Range (MIC80) A. fumigatus ATCC 16424 [8] | MIC Range (MIC80) C. neoformans ATCC 36556 [9] | MIC Range (MIC80) Candida krusei ATCC 6258 [10] | MIC Range (MIC80) Candida albicans ATCC 10231 [11] | MIC Range (MIC80) Candida albicans MYA-573 [12] | IC50 ([1]; microsomes) [µM] | IC50 ([2]; microsomes) [µM] | IC50 [3] [µM] | IC50 ([4]; microsomes) [µM] | IC50 ([5]; microsomes) [µM] | IC50 ([6]; microsomes) [µM] | IC50 ([7]; microsomes) [µM] | further results
1 | CC(N1CCN(c2ccc(OC(F)=Cc3cccc(Cl)c3)cc2)C1=O)C(O)(Cn1cncn1)c1ccc(F)cc1F (mixture of isomers) [Example 111] |  |  |  |  |  | > 100 | > 100 | > 100 | > 100 | > 100 | > 100 | > 100 | 
2 | CC(n1ccn(-c2ccc(OC(F)=C(c3ccc(Cl)cc3)C(F)(F)F)cc2)c1=O)C(O)(Cn1cncn1)c1ccc(F)cc1F (mixture of isomers) [Example 121] |  |  |  |  |  | > 100 | 41.2 | > 100 | > 100 | > 100 | > 100 | > 100 | 
3 | C[C@@H]1[C@H](O)[C@@H](C)/C=C/C=C/C=C/C=C/C=C/C=C/C=C/[C@H](O[C@@H]2O[C@H](C)[C@@H](O)[C@H](N)[C@@H]2O)C[C@@H]2O[C@](O)(C[C@@H](O)C[C@@H](O)[C@H](O)CC[C@@H](O)C[C@@H](O)CC(=O)O[C@H]1C)C[C@H](O)[C@H]2C(=O)O [Amphotericine B, reference compound] | 0.5~1 μg/ml | 0.25~1 μg/ml | 1 µg/mL (≈ 1.08 µM) | 0.5~1 μg/ml | 1~2 μg/ml |  |  |  |  |  |  |  | 
4 | COc1ccc(C(=C(F)Oc2ccc(-c3ncn(C(C)C(O)(Cn4cncn4)c4ccc(F)cc4F)n3)cc2)C(F)(F)F)cc1 (stereo not drawn) [Example 32] |  |  |  |  |  |  |  | > 100 |  |  |  |  | IC50 ([1]; read-out: IC50 Mephenytoin 4-hydroxylase CYP 2C19, human hepatic microsomes 0.5 mg/ml, 37° C., 20 min, LC-MS): > 100 µM; IC50 ([2]; read-out: IC50 Paclitaxel 6 α-hydroxylase CYP 2C8, human hepatic microsomes 0.5 mg/ml, 37° C., 20 min, LC-MS): 19.9 µM; IC50 ([4]; read-out: IC50 Diclofenac 4′-hydroxylase CYP 2C9, human hepatic microsomes 0.5 mg/ml, 37° C., 20 min, LC-MS): > 100 µM; IC50 ([5]; read-out: IC50 Phenacetin O-deethylase CYP 1A2, human hepatic microsomes 0.5 mg/ml, 37° C., 20 min, LC-MS): > 100 µM; IC50 ([6]; read-out: IC50 Bufuralol 1′-hydroxylase CYP 2D6, human hepatic microsomes 0.5 mg/ml, 37° C., 20 min, LC-MS): > 100 µM; IC50 ([7]; read-out: IC50 Coumarin 7-hydroxylase CYP 2A6, human hepatic microsomes 0.5 mg/ml, 37° C., 20 min, LC-MS): > 100 µM
5 | CC(n1cnc(-c2ccc(OC(F)=Cc3ccc(Cl)cc3)cc2)n1)C(O)(Cn1cncn1)c1ccc(F)cc1F (stereo not drawn) [Example 40] |  |  |  |  |  | > 100 | 30.1 | > 100 | > 100 | > 100 | > 100 | > 100 | LD50 [13]: approximately 1,750 mg/kg; fetal dose [13]: 1,000˜2,000 mg/kg
6 | CC(=O)N1CCN(c2ccc(OCC3COC(Cn4ccnc4)(c4ccc(Cl)cc4Cl)O3)cc2)CC1 (stereo not drawn) [ketoconazole, reference compound] |  |  |  |  |  |  |  |  |  |  |  |  | IC50 [7]: > 100 µM

The next lines start with results.

Row | MIC Range (MIC80) A. fumigatus ATCC 16424 [8] | MIC Range (MIC80) C. neoformans ATCC 36556 [9] | MIC Range (MIC80) Candida krusei ATCC 6258 [10] | MIC Range (MIC80) Candida albicans ATCC 10231 [11] | MIC Range (MIC80) Candida albicans MYA-573 [12] | SMILES | IC50 ([1]; microsomes) [µM] | IC50 ([2]; microsomes) [µM] | IC50 [3] [µM] | IC50 ([4]; microsomes) [µM] | IC50 ([5]; microsomes) [µM] | IC50 ([6]; microsomes) [µM] | IC50 ([7]; microsomes) [µM] | further results
7 | >16 µg/mL | 4 µg/mL (≈ 8.75 µM) | >16 µg/mL | 2~4 μg/ml | >256 µg/mL | CC(OC(F)=C(c1ccccc1)C(F)(F)F)C(O)(Cn1cncn1)c1ccc(F)cc1F (stereo not drawn) [Example 5] |  |  |  |  |  |  |  | 
8 | >64 µg/mL | 16 µg/mL (≈ 32.8 µM) | >64 µg/mL | >64 µg/mL |  | COc1cccc(C(=C(F)OC(C)C(O)(Cn2cncn2)c2ccc(F)cc2F)C(F)(F)F)c1 (stereo not drawn) [Example 13] |  |  |  |  |  |  |  | 
9 | >256 µg/mL | 0.5 µg/mL (≈ 1.04 µM) | 4 µg/mL (≈ 8.31 µM) | 1 µg/mL (≈ 2.08 µM) | 1 µg/mL (≈ 2.08 µM) | CC(OC(F)=Cc1ccc(Oc2ccccc2)cc1)C(O)(Cn1cncn1)c1ccc(F)cc1F (stereo not drawn) [Example 15] |  |  |  |  |  |  |  | 
10 |  | 16~32 μg/ml | 32~64 μg/ml | 2~4 μg/ml |  | OC(Cn1cncn1)(Cn1cncn1)c1ccc(F)cc1F [Fluconazole, reference compound] |  |  |  |  |  |  |  | IC50 [2]: > 100 µM; IC50 [5]: > 100 µM; IC50 [6]: 44.2 µM; IC50 [7]: > 100 µM

Source: patent publication US20080027117A1, “Antifungal Azole Derivatives Having a Fluorovinyl Moiety and Process for the Preparation Thereof” (KOREA RESERACH INSTIITUTE OF CHEMICAL TECHNOLOGY, priority 2003, published 2008)
